According to patent publication US5541174A, “Analgesic method” (priority 1995, dated 1996):

Legend:
[1] = test system: adjuvant-induced arthritic pain in rats; assay: Adjuvant-induced arthritic pain; type: in vivo, male Sprague-Dawley rats
Source text: 2. Adjuvant-induced arthritic pain as described in:
S. KUZNA, et al., Measurement of Arthritic Pain and Effects of Analgesics in the Adjuvant-Treated Rat, Chem. Pharm. Bull. 23, 1184-1191 (1975);
C. A. WINTER, et al., Analgesic Activity of Diflunisal in Rats with Hyperalygesia Induced by Freud's Adjuvant, J. Pharmacol. Exp. Ther. 211, 678-685 (1979; and
M. E. ROSENTHALE, et al., Adjuvant Arthritis:Immuno-Pathological and Hyperalgesic Features, Fed. Proced. 41, 2577-2582 (1982),
incorporated by reference herein.
Groups of 5-6 male Sprague-Dawley rats (Taisho Pharmaceutical Co. Research Center) weighing 140 to 160 g at the time of Mycobacterium butyricum (adjuvant, Difco Laboratories, Detroit, Mich.) injection were used to study each compound. Rats were injected intradermally at the base of the tail with 0.1 ml of a parafin oil suspension of 0.5 mg of heat-killed mycobacterium. Fifteen to 19 days later, drugs were administered orally or subcutaneously in 0.5 ml of vehicle per 100 g of body weight to rats showing the nociceptive reaction, vocalization following a gentle flexion of the tarsal-tibial joint of the inflamed hind-paw. Vocalization responses were measured every hour for 5 hours. […] The ED50 value and 95% confidence limits were calculated from the positive rate for non-treated controls, vehicle-treated adjuvant arthritic rats, by the method of Litchfield and Wilcoxin.
All drugs were suspended with 5% gum arabic in saline solution or wetted with enough propylene glycol to give a final concentration of 4% propylene glycol and the wetted solid suspended in 1.4% polyvinyl alcohol in saline.

[2] = test system: acetic acid induced writhing in mice; assay: Acetic acid-induced writhing test; type: in vivo, ICR male mice
Description: 1. Acetic acid-induced writhing test as described in Koster et al., "Acetic Acid for Analgesic Screening", Fed. Proc. 18, 412 (1959), incorporated by reference herein; and
Groups of 10 ICR male mice (Taisho Pharmaceutical Co. Research Center) were used to study each dose of every compound. Ligands or complexes were administered orally or subcutaneously in 0.1 ml of vehicle per 10 g of body weight 30 minutes before the intrapertioneal injection of 0.1 ml of 0.7% acetic acid solution per 10 g of body weight. Number of writhes were counted for each mouse during a period of 10 to 20 min after acetic acid injection. Inhibitory percent was calculated by comparison with the number of writhes in the non-treated control, vehicle-treated, and acetic acid-injected group. The ED50 value and 95% confidence limits were calculated from the inhibitory percent by the method of Litchfield and Wilcoxon.

[3] = oral, 5% gum arabic, 0.30 mmol/kg
[4] = oral, 5% gum arabic, 0.60 mmol/kg
[5] = oral, 5% gum arabic, 0.18 mmol/kg
[6] = oral, 5% gum arabic, 0.71 mmol/kg
[7] = oral, 5% gum arabic, 0.56 mmol/kg
[8] = oral, 5% gum arabic, 1.11 mmol/kg
[9] = oral, 5% gum arabic, 0.33 mmol/kg

Structure (SMILES): Nc1ccccc1C(=O)[O-].Nc1ccccc1C(=O)[O-].[Cu+2] [Cu(II)(anthranilate)2, Bisanthranilato(O,N)copper(II)]
- analgesic effectiveness versus parent ligand ([1]; oral, 5% gum arabic): less effective than its parent ligand
- ED50 ([1]; oral, 5% gum arabic in saline): > 0.60 mmol/kg
- % Inhibition [1, 3]: 0%
- % Inhibition [1, 4]: 10%
- analgesic effectiveness versus parent ligand ([1]; oral, PG-PVA): less effective than its parent ligand
- ED50 ([1]; oral, PG-PVA in saline): > 0.60 mmol/kg
- % Inhibition ([1]; oral, PG-PVA, 0.60 mmol/kg): 17%
- ED50 ([1]; s.c., PG-PVA in saline): 0.19 mmol/kg
- % Inhibition ([1]; s.c., PG-PVA, 0.07 mmol/kg): 20%
- % Inhibition ([1]; s.c., PG-PVA, 0.15 mmol/kg): 43%
- % Inhibition ([1]; s.c., PG-PVA, 0.30 mmol/kg): 63%
- ED50 ([2]; oral, 5% gum arabic in saline): 0.50 mmol/kg
- analgesic effectiveness versus parent ligand ([2]; oral, 5% gum arabic in saline): more effective than their parent ligands
- % Inhibition ([2]; oral, 5% gum arabic, 0.15 mmol/kg): 25%
- % Inhibition [2, 3]: 47%
- % Inhibition [2, 4]: 50%
- analgesic effectiveness versus parent ligand ([2]; oral, PG-PVA): more effective than their parent ligands
- ED50 ([2]; oral, PG-PVA in saline): > 0.89 mmol/kg
- ED50 ([2]; s.c., PG-PVA in saline): 0.22 mmol/kg
- % Inhibition ([2]; s.c., PG-PVA, 0.07 mmol/kg): 30%
- % Inhibition ([2]; s.c., PG-PVA, 0.15 mmol/kg): 42%
- % Inhibition ([2]; s.c., PG-PVA, 0.30 mmol/kg): 57%

Structure (SMILES): COc1ccc2c(c1)c(CC(=O)O)c(C)n2C(=O)c1ccc(Cl)cc1 [Indomethacin, reference compound]
- ED50 ([1]; oral, 5% gum arabic in saline): 0.003 mmol/kg
- % Inhibition ([1]; oral, 5% gum arabic, 0.001 mmol/kg): 27%
- % Inhibition ([1]; oral, 5% gum arabic, 0.003 mmol/kg): 43%
- % Inhibition ([1]; oral, 5% gum arabic, 0.006 mmol/kg): 77%
- ED50 ([1]; oral, PG-PVA in saline): 0.02 mmol/kg
- % Inhibition ([1]; oral, PG-PVA, 0.007 mmol/kg): 23%
- % Inhibition ([1]; oral, PG-PVA, 0.014 mmol/kg): 43%
- % Inhibition ([1]; oral, PG-PVA, 0.028 mmol/kg): 70%
- ED50 ([2]; oral, 5% gum arabic in saline): 0.04 mmol/kg
- % Inhibition ([2]; oral, 5% gum arabic, 0.01 mmol/kg): 36%
- % Inhibition ([2]; oral, 5% gum arabic, 0.03 mmol/kg): 42%
- % Inhibition ([2]; oral, 5% gum arabic, 0.06 mmol/kg): 58%
- ED50 ([2]; oral, PG-PVA in saline): 0.01 mmol/kg
- % Inhibition ([2]; oral, PG-PVA, 0.007 mmol/kg): 27%
- % Inhibition ([2]; oral, PG-PVA, 0.014 mmol/kg): 60%
- % Inhibition ([2]; oral, PG-PVA, 0.028 mmol/kg): 68%
- ED50 ([2]; s.c., PG-PVA in saline): 0.02 mmol/kg
- % Inhibition ([2]; s.c., PG-PVA, 0.007 mmol/kg): 19%
- % Inhibition ([2]; s.c., PG-PVA, 0.014 mmol/kg): 36%
- % Inhibition ([2]; s.c., PG-PVA, 0.056 mmol/kg): 60%

Structure (SMILES): O=C(O)c1cccnc1Nc1cccc(C(F)(F)F)c1 [Niflumic acid, 2[3(trifluoro-methyl)phenyl] aminonicotinic acid, reference compound]
- ED50 ([1]; oral, 5% gum arabic in saline): 0.42 mmol/kg
- % Inhibition [1, 5]: 13%
- % Inhibition [1, 6]: 87%
- ED50 ([1]; oral, PG-PVA in saline): 0.48 mmol/kg
- % Inhibition ([1]; oral, PG-PVA, 0.18 mmol/kg): 23%
- % Inhibition ([1]; oral, PG-PVA, 0.71 mmol/kg): 60%
- ED50 ([2]; oral, 5% gum arabic in saline): 0.15 mmol/kg
- % Inhibition [2, 5]: 52%
- % Inhibition [2, 6]: 75%
- ED50 ([2]; oral, PG-PVA in saline): 0.21 mmol/kg
- % Inhibition ([2]; oral, PG-PVA, 0.13 mmol/kg): 38%
- % Inhibition ([2]; oral, PG-PVA, 0.27 mmol/kg): 51%
- % Inhibition ([2]; oral, PG-PVA, 0.53 mmol/kg): 80%
- ED50 ([2]; s.c., PG-PVA in saline): 0.10 mmol/kg
- % Inhibition ([2]; s.c., PG-PVA, 0.04 mmol/kg): 21%
- % Inhibition ([2]; s.c., PG-PVA, 0.09 mmol/kg): 54%
- % Inhibition ([2]; s.c., PG-PVA, 0.18 mmol/kg): 64%

Structure (SMILES): [Cl][Cu][Cl] [Cu(II)(chloride)2, reference compound]
- analgesic activity ([1]; doses statistically significantly analgesic in the writhing model): devoid of analgesic activity
- ED50 ([1]; oral, PG-PVA in saline): > 2.24 mmol/kg
- % Inhibition ([1]; oral, PG-PVA, 2.24 mmol/kg): 0%
- ED50 ([1]; s.c., PG-PVA in saline): > 2.24 mmol/kg
- % Inhibition ([1]; s.c., PG-PVA, 2.24 mmol/kg): 3%
- ED50 ([2]; s.c., PG-PVA in saline): 0.60 mmol/kg
- % Inhibition ([2]; s.c., PG-PVA, 0.56 mmol/kg): 48%
- % Inhibition ([2]; s.c., PG-PVA, 1.12 mmol/kg): 69%
- % Inhibition ([2]; s.c., PG-PVA, 2.24 mmol/kg): 83%

Structure (SMILES): CC(=O)Oc1ccccc1C(=O)O [Aspirin, acetylsalicylic acid, reference compound]
- ED50 ([1]; oral, 5% gum arabic in saline): 0.62 mmol/kg
- % Inhibition ([1]; oral, 5% gum arabic, 0.28 mmol/kg): 27%
- % Inhibition [1, 7]: 43%
- % Inhibition [1, 8]: 70%
- ED50 ([1]; oral, PG-PVA in saline): 1.41 mmol/kg
- % Inhibition ([1]; oral, PG-PVA, 0.56 mmol/kg): 30%
- % Inhibition ([1]; oral, PG-PVA, 1.11 mmol/kg): 40%
- % Inhibition ([1]; oral, PG-PVA, 2.22 mmol/kg): 63%
- ED50 ([2]; oral, 5% gum arabic in saline): 1.30 mmol/kg
- % Inhibition [2, 7]: 29%
- % Inhibition [2, 8]: 42%
- % Inhibition ([2]; oral, 5% gum arabic, 2.22 mmol/kg): 66%
- ED50 ([2]; oral, PG-PVA in saline): 0.48 mmol/kg
- % Inhibition ([2]; oral, PG-PVA, 0.21 mmol/kg): 32%
- % Inhibition ([2]; oral, PG-PVA, 0.42 mmol/kg): 41%
- % Inhibition ([2]; oral, PG-PVA, 0.84 mmol/kg): 67%
- ED50 ([2]; s.c., PG-PVA in saline): 0.52 mmol/kg
- % Inhibition ([2]; s.c., PG-PVA, 0.28 mmol/kg): 28%
- % Inhibition ([2]; s.c., PG-PVA, 0.56 mmol/kg): 57%
- % Inhibition ([2]; s.c., PG-PVA, 1.11 mmol/kg): 71%

Structure (SMILES): N[C@@H](CSSC[C@H](N)C(=O)[O-])C(=O)[O-].[Cu+2] [Cu(II)(L-cystinate)]
- ED50 ([1]; oral, 5% gum arabic in saline): > 0.33 mmol/kg
- % Inhibition [1, 9]: 0%
- activity versus other copper complexes and parent ligand ([2]; Table VI): less active than the other copper complexes
- ED50 ([2]; oral, 5% gum arabic in saline): > 0.33 mmol/kg
- % Inhibition [2, 9]: 35%
